Here are results for six molecules from patent US5206234A, “Benzolactam analogs as antagonists of CCK” (priority 1991, dated 1993).

Read-outs that look alike come from different tables or passages of the source.

Data set [1] concerns CCK-A and CCK-B receptors. The conditions noted are these: cited from earlier work.
A further data set concerns CCK-A receptors. The conditions noted are these: cited from earlier work.
A further data set relates to humans. The conditions noted are these: cited from earlier work.
The next data set relates to CCK-B receptors. The following applies: cited from earlier work.
The conditions of data set [2]: Deschodt-Lanckman et al.; cited from earlier work.
Data set [3] has as its system anxiety (mice). Put plainly: Black/white exploration test (anxiolytic activity). In kind it is in vivo, mouse (male DBA2). From the text:
The black/white exploration test [Crawley et al. Pharmacology, Biochemistry and Behav. 13, 167 (1980)] is a simple animal model of anxiety. Rodents placed in a two compartment box which consists of a brightly lit, white painted side and a dimly lit, black painted side, display a marked preference for the black side of the apparatus. This behavior is caused by the aversive properties of the brightly lit, white painted section. Classical anxiolytic drugs [such as diazepam, see Crawley, supra] and novel anxiolytic drugs [such as 5HT3 antagonists, see Jones et al. Br. J. Pharm.
A. Naive male DBA2 mice (25-30) were housed on a reversed light/dark cycle and tested during the dark phase of the cycle under dim red light. The apparatus consisted of an open topped box (40 cm long×27 cm wide×27 cm high) divided into a small area (2/5) and a large area (3/5) by a partition that extended 20 cm above the walls. There was a 7.5×7.5 cm opening in the partition at floor level. The small compartment was painted black and the large compartment white. The floor of each compartment was marked into 9 cm squares. The white compartment was illuminated by a 100 W tungsten bulb 17 cm above the box and the black compartment by a similarly placed 60 W red bulb.
Animals that had been injected with drug or vehicle were placed individually into the centre of the white area and their behavior observed during a 5 minute period by remote video recording. Four behavioral parameters were recorded every minute: the number of exploratory rears in the white and black sections, the number of line crossings in the black and white sections, the number of transitions between the two sections and the time spent in the black and white sections. Animals were tested in treatment groups of 8-10 and vehicle controls were run on each test day. Data were analysed by ANOVA and Dunnetts test.

Data set [4] deals with exploratory behavior of the rat. Put plainly: Exploratory behavior in automated activity cages, novel environment. In kind it is in vivo, rat (Male Sprague Dawley). As for the experimental part:
(§1) B. The effects of CCK-8 and compound A on the exploratory behavior of the rat were examined in automated activity cages and by direct observation. It is known that exogenous CCK-8 decreases exploratory behavior in rats in a novel environment by accelerating the process of habituation. [See Crawley, Pharm. Biochem & Behav. 20, 23-27 (1984).]
Expt 1. Male Sprague Dawley rats were injected ([…].) with CCK-8 and immediately placed in automated activity cages. Activity was measured for 30 minutes past injection.
Expt 2. Male SD rats were injected (s.c.) with the CCK antagonist compound A (0.0001-10 mg/kg) and immediately placed in the automated activity cages.

Data set [5] has the same test system. Put plainly: Exploration in a novel environment by direct observation (perspex cage). In kind it is in vivo. The following applies: 0.1 mg/kg.
Text: as §1
Expt 3. In order to assess further the effect of Compound A on exploration in a novel environment, the motoric hehaviors of rats placed in a perspex cage was recorded by direct observation for a 15 minute period 15 minutes after treatment with Compound A.
Experimenters (unaware of the treatments the animals had received) recorded the frequency and duration of rearing, sniffing, grooming and cage crossing using a keypad interfaced to a BBC microcomputer.

Data set [6] has the same test system. The following applies: McElroy et al.; cited from earlier work.
The subject of data set [7] is anxiety (mice). The following applies: rodents; Crawley / Jones; cited from earlier work.

For the molecule `CSCC[C@H](NC(=O)[C@@H](N)Cc1c[nH]c2ccccc12)C(=O)N[C@@H](CC(=O)O)C(=O)N[C@@H](Cc1ccccc1)C(N)=O` [CCK-4], in data set [1], the “Receptor selectivity as agonist” value was “preferential CCK-B receptor agonist”. Moreover, the “Affinity for CCK-A receptors” value in the data set with CCK-A receptors is “lower affinity”. Also, in the data set with humans (in vivo), the “Effect in humans (panic, gastrointestinal effects)” value is listed as “induce panic”. In addition, the “Affinity for CCK-B receptors” value in the data set with CCK-B receptors is reported as “high affinity”.
Regarding `CSCC[C@H](NC(=O)[C@H](Cc1ccc(OS(=O)(=O)O)cc1)NC(=O)[C@@H](N)CC(=O)O)C(=O)NCC(=O)N[C@@H](Cc1c[nH]c2ccccc12)C(=O)N[C@@H](CCSC)C(=O)N[C@@H](CC(=O)O)C(=O)N[C@@H](Cc1ccccc1)C(N)=O` [CCK-8s, H-Asp-Tyr(SO3 H)-Met-Gly-Trp-Met-Asp-Phe-NH2], the “Affinity for CCK-A receptors” value in the data set on CCK-A receptors is “high affinity”. Also, the Half-life entry in data set [2] was “less than 1 hour”. Moreover, in the data set with CCK-B receptors, the “Affinity for CCK-B receptors” value is given as “high affinity”.
For the molecule `CN1C(=O)[C@@H](NC(=O)c2cc3ccccc3[nH]2)N=C(c2ccccc2)c2ccccc21` [Compound A, 3(S)-(-)-1,3-dihydro-3-(2-indolecarbonylamino)-1-methyl-5-phenyl-2H-1,4-benzodiazepin-2-one], the “Preference for locomotion (line crossings) in the black side” value in the data set with anxiety (mice) [3] (0.5, 5.0 and 500 ug/kg) is “abolished the preference for locomotion (line crossings) in the black side”. For the same molecule, the “Difference in time spent in the black and white side” value in the data set with anxiety (mice) [3] (5.0 and 500 ug/kg) is on record as “abolished”. In the data set on anxiety (mice) [3] (black/white exploration test, mice), this molecule had an Active dose range of 0.05 to 5.0 µg/kg. The “Preference for rearing in the black side” value in the data set on anxiety (mice) [3] (doses of 0.05, 0.5, 5.0 and 500 ug/kg) is “significantly decreased the preference for rearing in the black side”. In addition, the “Habituation and period of exploratory activity” value in data set [4] (0.0001-10 mg/kg s.c., F(6,124)=2.54, p<0.05) is “delayed habituation and prolonged the period of exploratory activity of the rats”. Besides, the “Level of activity at 25 minutes” value in data set [4] (0.1 mg/kg s.c., 25 minutes, F(6.124)=3.18, p<0.01) is on record as “significantly above controls”; in [4] (doses higher and lower than 0.1 mg/kg, bell-shaped dose response), “no significant effect on activity”. The Cage crossing entry in data set [5] (F(3,43)=3.79, P<0.05) was “significantly increased”. Also, the Sniffing entry in data set [5] (F(3,43)=3.96, P<0.01) is “significantly increased”. The Rearing entry in data set [5] (F(3,43)=4.77, P<0.01) is given as “significantly increased”.
As for `CNC1=Nc2ccc(Cl)cc2C(c2ccccc2)=[N+]([O-])C1` [chlordiazepoxide], the “Spontaneous locomotor activity in rats in a novel environment” value in [6] is “increases spontaneous locomotor activity”.
With `CN1C(=O)CN=C(c2ccccc2)c2cc(Cl)ccc21` [diazepam], the “Preference of the animal for the black dimly lit side” value in the data set with anxiety (mice) [7] is reported as “decrease the preference of the animal for the black dimly lit side of the apparatus”.
In the case of “CCK-8: exogenous CCK-8, equipotent as an agonist at CCK-A and CCK-B receptors”, the “Receptor selectivity as agonist” value in data set [1] was “equipotent as an agonist at CCK-A and CCK-B receptors”. Moreover, the Locomotor activity result in data set [4] (CCK-8 0.5-16 μg/kg i.p., 30 minutes, F(6,87)=3.21 (p<0.01)) is recorded as “dose-dependently decreased locomotor activity”. For the same molecule, the “Effect in humans (panic, gastrointestinal effects)” value in the data set with humans (studies in humans) is “induced gastrointestinal effects but not panic symptoms”.
